Assay results as given in the supplement of paper PMC11061612.

Tests used:
Experiment in all cases: Bliss excess, mean over the matrix (fraction); higher = more synergy
[1] = test system: SNU-175 (Colorectal Carcinoma)
How it was run: (§1)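 After 24 hours at 37°C and 5% CO2 in 1536-well plates, cells in DMEM/F12 or RPMI plus 10% FBS received two-drug dose matrices for 72 hours. Viability came from CellTiter-Glo 2.0 luminescence and was scaled as inhibition, anchored at 0 by vehicle wells and at 1 by blank wells. Combination Emax is taken as the second-highest inhibition in the matrix, and Bliss excess as the observed combination effect less EA + EB − EA·EB, with EA and EB the single-agent effects.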

[2] = test system: RL95-2 (Endometrial Carcinoma)
How it was run: as §1

KYM-1 (Rhabdomyosarcoma) = test system: KYM-1 (Rhabdomyosarcoma)
How it was run: as §1

[3] = test system: PANC-02-03 (Pancreatic Carcinoma)
How it was run: as §1

[4] = test system: COLO-684 (Endometrial Carcinoma)
How it was run: as §1

[5] = test system: HSC-3 (Oral Cavity Carcinoma)
How it was run: as §1

[6] = test system: JHH-1 (Hepatocellular Carcinoma)
How it was run: as §1

[7] = test system: RMG-I (Ovarian Carcinoma)
How it was run: as §1

786-0 (Kidney Carcinoma) = test system: 786-0 (Kidney Carcinoma)
How it was run: as §1

[8] = test system: OV-90 (Ovarian Carcinoma)
How it was run: as §1

[9] = test system: HTC-C3 (Thyroid Gland Carcinoma)
How it was run: as §1

[10] = test system: PC-14 (Lung Adenocarcinoma)
How it was run: as §1

[11] = test system: RPMI-8866 (Chronic Myelogenous Leukemia)
How it was run: as §1

[12] = test system: OCI-AML5 (Acute Myeloid Leukemia)
How it was run: as §1

[13] = test system: AsPC-1 (Pancreatic Carcinoma)
How it was run: as §1

RT4 (Bladder Carcinoma) = test system: RT4 (Bladder Carcinoma)
How it was run: as §1

[14] = test system: OVTOKO (Ovarian Carcinoma)
How it was run: as §1

[15] = test system: SK-MM-2 (Plasma Cell Myeloma)
How it was run: as §1

[16] = test system: NCI-H1155 (Non-Small Cell Lung Carcinoma)
How it was run: as §1

CHL-1 (Melanoma) = test system: CHL-1 (Melanoma)
How it was run: as §1

SMILES	Bliss excess [1]	Bliss excess [2]	Bliss excess (KYM-1 (Rhabdomyosarcoma))	Bliss excess [3]	Bliss excess [4]	Bliss excess [5]	Bliss excess [6]	Bliss excess [7]	Bliss excess (786-0 (Kidney Carcinoma))	Bliss excess [8]	Bliss excess [9]	Bliss excess [10]	Bliss excess [11]	Bliss excess [12]	Bliss excess [13]	Bliss excess (RT4 (Bladder Carcinoma))	Bliss excess [14]	Bliss excess [15]	Bliss excess [16]	Bliss excess (CHL-1 (Melanoma))
Cn1cnc2c(F)c(Nc3ccc(Br)cc3Cl)c(C(=O)NOCCO)cc21 [Selumetinib] + CCN(CCO)CCCOc1ccc2c(Nc3cc(CC(=O)Nc4cccc(F)c4)[nH]n3)ncnc2c1 [AZD2811] (first compound max 10 µM, 7x7, partner max 1 µM)	-0.0253	0.045	-0.0102	-0.0144	-0.0211	-0.0877	-0.0327	-0.0385	-0.0344	-0.0252	-0.0228	0.0372	0.0543	-0.0225	0.0032	-0.0816	-0.0303	-0.0037	0.0907	-0.0579
Cn1cnc2c(F)c(Nc3ccc(Br)cc3Cl)c(C(=O)NOCCO)cc21 [Selumetinib] + C[C@@H]1COCCN1C2=NC(=NC(=C2)C3(CC3)[S@](=N)(=O)C)C4=C5C=CNC5=NC=C4 [AZD6738] (first compound max 10 µM, 7x7, partner max 10 µM)	0.0644	0.0152	-0.033	0.04	-0.0474	0.0049	0.0427	0.0106	-0.0735	0.0049	-0.0072	-0.0022	-0.0129	0.0024	0.0716	-0.0036	-0.0278	-0.0604	-0.0028	-0.0498
CC(=O)Nc1cccc(-n2c(=O)n(C3CC3)c(=O)c3c(Nc4ccc(I)cc4F)n(C)c(=O)c(C)c32)c1 [Trametinib] + Cc1nc(-c2cn3c(n2)-c2ccc(-c4cnn(C(C)(C)C(N)=O)c4)cc2OCC3)n(C(C)C)n1 [Taselisib] (first compound max 1 µM, 7x7, partner max 10 µM)	0.0779	0.0378	0.0424	0.179	-0.0034	0.15	0.0177	-0.0099	-0.0229	0.0922	0.113	0.163	0.118	0.194	0.0654	0.0566	0.0659	0.0386	0.0426	0.171
CC1(C)CCC(CN2CCN(c3ccc(C(=O)NS(=O)(=O)c4ccc(NCC5CCOCC5)c([N+](=O)[O-])c4)c(Oc4cnc5[nH]ccc5c4)c3)CC2)=C(c2ccc(Cl)cc2)C1 [Venetoclax] + C1CN(CCC1(C(=O)N[C@@H](CCO)C2=CC=C(C=C2)Cl)N)C3=NC=NC4=C3C=CN4 [Capivasertib] (first compound max 1 µM, 7x7, partner max 3 µM)	-0.06	-0.0102	-0.0269	-0.0742	-0.0821	-0.0501	-0.0721	-0.0823	-0.0428	-0.0796	-0.0418	-0.038	-0.0224	-0.0057	-0.088	-0.0469	-0.0546	-0.0449	-0.0482	-0.0266
CC1(C)CCC(CN2CCN(c3ccc(C(=O)NS(=O)(=O)c4ccc(NCC5CCOCC5)c([N+](=O)[O-])c4)c(Oc4cnc5[nH]ccc5c4)c3)CC2)=C(c2ccc(Cl)cc2)C1 [Venetoclax] + C=CCn1c(=O)c2cnc(Nc3ccc(N4CCN(C)CC4)cc3)nc2n1-c1cccc(C(C)(C)O)n1 [AZD1775] (first compound max 1 µM, partner max 1 µM)	-0.0735	0.0277	0.0082	-0.0699	-0.0644	-0.0216	0.0213	-0.0409	-0.0686	-0.0168	-0.065	-0.0027	-0.0547	-0.0397	-0.0879	0.0364	-0.0903	0.102	-0.0417	0.0577
CC1(C)CCC(CN2CCN(c3ccc(C(=O)NS(=O)(=O)c4ccc(NCC5CCOCC5)c([N+](=O)[O-])c4)c(Oc4cnc5[nH]ccc5c4)c3)CC2)=C(c2ccc(Cl)cc2)C1 [Venetoclax] + CCN(CCO)CCCOc1ccc2c(Nc3cc(CC(=O)Nc4cccc(F)c4)[nH]n3)ncnc2c1 [AZD2811] (first compound max 1 µM, 7x7, partner max 1 µM)	-0.0552	0.0814	-0.0017	-0.0283	-0.0358	-0.0475	-0.0166	-0.055	-0.0469	-0.0546	-0.0236	0.0131	0.133	-0.0195	-0.0755	0.0704	-0.0183	-0.0099	0.132	0.0784
CC1(C)CCC(CN2CCN(c3ccc(C(=O)NS(=O)(=O)c4ccc(NCC5CCOCC5)c([N+](=O)[O-])c4)c(Oc4cnc5[nH]ccc5c4)c3)CC2)=C(c2ccc(Cl)cc2)C1 [Venetoclax] + CN(C)CCCOc1ccc(-c2ccc3ncc4c(c3c2)n(C2CCOCC2)c(=O)n4C)cn1 [AZD0156] (first compound max 1 µM, 7x7, partner max 1 µM)	-0.0511	-0.0027	0.013	-0.0541	-0.0356	0.012	-0.042	-0.016	-0.0327	-0.041	-0.0378	0.0043	-0.0408	-0.0618	-0.1	-0.0259	-0.086	-0.0129	-0.0214	0.0082
CC1(C)CCC(CN2CCN(c3ccc(C(=O)NS(=O)(=O)c4ccc(NCC5CCOCC5)c([N+](=O)[O-])c4)c(Oc4cnc5[nH]ccc5c4)c3)CC2)=C(c2ccc(Cl)cc2)C1 [Venetoclax] + COc1cc(Nc2ncc3c(n2)-c2ccc(Cl)cc2C(c2c(F)cccc2OC)=NC3)ccc1C(=O)O [Alisertib] (first compound max 1 µM, 7x7, partner max 10 µM)	0.007	0.0892	0.0069	-0.0527	-0.0153	0.0079	0.0308	-0.0513	-0.0114	-0.0536	-0.0285	0.0366	0.0475	0.17	-0.0701	0.0354	-0.0508	0.0207	0.346	0.238
CC1(C)CCC(CN2CCN(c3ccc(C(=O)NS(=O)(=O)c4ccc(NCC5CCOCC5)c([N+](=O)[O-])c4)c(Oc4cnc5[nH]ccc5c4)c3)CC2)=C(c2ccc(Cl)cc2)C1 [Venetoclax] + C[C@@H]1COCCN1C2=NC(=NC(=C2)C3(CC3)[S@](=N)(=O)C)C4=C5C=CNC5=NC=C4 [AZD6738] (first compound max 1 µM, 7x7, partner max 10 µM)	-0.0392	-0.0361	-0.0119	-0.0199	0.005	-0.0022	-0.0365	-0.0178	-0.0882	0.0022	-0.0354	-0.021	0.0052	0.0391	-0.0301	-0.0281	-0.0395	0.0217	0.0582	0.0493
CC1(C)CCC(CN2CCN(c3ccc(C(=O)NS(=O)(=O)c4ccc(NCC5CCOCC5)c([N+](=O)[O-])c4)c(Oc4cnc5[nH]ccc5c4)c3)CC2)=C(c2ccc(Cl)cc2)C1 [Venetoclax] + C[C@@H](Nc1cc(F)cc(F)c1)c1cc(C(=O)N(C)C)cc2c(=O)cc(N3CCOCC3)oc12 [AZD8186] (first compound max 1 µM, 7x7, partner max 3 µM)	-0.0201	-0.0189	-0.0138	-0.0527	-0.261	-0.0286	-0.0413	-0.0274	-0.0095	-0.0441	-0.0236	-0.0169	0.0151	0.0529	-0.0817	-0.0208	-0.0535	0.024	-0.026	-0.0397
CC1(C)CCC(CN2CCN(c3ccc(C(=O)NS(=O)(=O)c4ccc(NCC5CCOCC5)c([N+](=O)[O-])c4)c(Oc4cnc5[nH]ccc5c4)c3)CC2)=C(c2ccc(Cl)cc2)C1 [Venetoclax] + Cc1cc2ncnn2cc1Nc1ncc2c(n1)n(C1CCOCC1)c(=O)n2C [AZD7648] (first compound max 1 µM, 7x7, partner max 10 µM)	-0.0327	-0.0025	-0.0074	-0.0646	-0.0205	0.0185	-0.0374	-0.0277	-0.0487	-0.0639	-0.0197	-0.0163	-0.026	-0.0238	-0.0803	-0.0115	-0.0518	0.0145	-0.041	-0.0264
CC1(C)CCC(CN2CCN(c3ccc(C(=O)NS(=O)(=O)c4ccc(NCC5CCOCC5)c([N+](=O)[O-])c4)c(Oc4cnc5[nH]ccc5c4)c3)CC2)=C(c2ccc(Cl)cc2)C1 [Venetoclax] + Cn1cnc2c(F)c(Nc3ccc(Br)cc3Cl)c(C(=O)NOCCO)cc21 [Selumetinib] (first compound max 1 µM, 7x7, partner max 3 µM)	-0.0157	-0.0313	-0.003	-0.0386	-0.0263	-0.0043	-0.0588	-0.0727	-0.0347	-0.0345	-0.049	-0.0229	-0.057	0.111	-0.0748	-0.0521	-0.0544	0.0187	-0.0317	-0.0418
